Experimental data published in ChEMBL document CHEMBL3045246, “Investigation on the substitution effects of the flavonoids as potent anticancer agents: a structureactivity relationships study” (Med Chem Res, 2012).

Legend:
HepG2 = assay: Cytotoxicity against Homo sapiens (human) HepG2 cells after 48 hr by MTT reduction assay; format: functional, cell-based; conditions: HepG2, 48 h
SMMC-7721 = assay: Cytotoxicity against Homo sapiens (human) SMMC7721 cells after 48 hr by MTT reduction assay; format: functional, cell-based; conditions: SMMC-7721, 48 h
[1] = molecular target: Cyclin-dependent kinase 1/cyclin B1 (Homo sapiens, UniProt P06493); assay: Inhibition of CDK1/Cyclin B (unknown origin) by Z-LYTE assay; format: protein-complex assay
Chain of Cyclin-dependent kinase 1/cyclin B1 (P06493 whole entry): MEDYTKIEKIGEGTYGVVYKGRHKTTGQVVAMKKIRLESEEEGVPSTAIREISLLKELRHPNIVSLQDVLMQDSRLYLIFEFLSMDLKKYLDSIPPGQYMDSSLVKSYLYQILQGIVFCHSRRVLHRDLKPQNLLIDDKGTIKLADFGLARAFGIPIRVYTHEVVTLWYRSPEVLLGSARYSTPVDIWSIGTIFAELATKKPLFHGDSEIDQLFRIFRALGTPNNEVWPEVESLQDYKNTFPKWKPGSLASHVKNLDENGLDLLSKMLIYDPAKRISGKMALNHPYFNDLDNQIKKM
Chain of Cyclin-dependent kinase 1/cyclin B1 (P14635 whole entry, further chain): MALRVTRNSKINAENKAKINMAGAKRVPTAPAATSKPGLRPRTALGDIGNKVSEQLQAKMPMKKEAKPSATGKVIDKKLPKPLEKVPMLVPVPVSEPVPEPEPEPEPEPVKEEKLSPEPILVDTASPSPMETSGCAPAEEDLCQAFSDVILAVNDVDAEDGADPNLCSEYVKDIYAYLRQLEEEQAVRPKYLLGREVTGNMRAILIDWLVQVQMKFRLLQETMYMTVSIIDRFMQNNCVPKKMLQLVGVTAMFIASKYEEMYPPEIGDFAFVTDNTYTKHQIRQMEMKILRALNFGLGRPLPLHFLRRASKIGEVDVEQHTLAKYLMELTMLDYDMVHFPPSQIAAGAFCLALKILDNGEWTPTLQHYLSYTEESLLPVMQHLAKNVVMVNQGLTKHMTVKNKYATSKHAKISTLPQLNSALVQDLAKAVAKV

Cc1ccc2oc(-c3ccc(N)cc3)cc(=O)c2c1
IC50 (HepG2): 21.3 µM

CN1CCN(Cc2ccc3c(=O)cc(-c4ccccc4Cl)oc3c2)CC1
IC50 (SMMC-7721): 12.9 µM
IC50 (HepG2): 14.2 µM

O=c1cc(-c2ccccc2Cl)oc2cc(CN3CCNCC3)ccc12
IC50 (SMMC-7721): 1.91 µM
IC50 (HepG2): 2.58 µM

CN(C)Cc1ccc2c(=O)cc(-c3ccccc3Cl)oc2c1
IC50 (SMMC-7721): 28.2 µM

O=c1cc(-c2ccc(Cl)cc2)oc2ccc(CN3CCCCC3)cc12
IC50 (SMMC-7721): 16.2 µM
IC50 (HepG2): 14 µM

O=c1cc(-c2ccc(Cl)cc2)oc2ccc(CN3CCNCC3)cc12
IC50 (SMMC-7721): 1.51 µM
IC50 (HepG2): 2.69 µM

CC[N+](CC)(CC)Cc1ccc2oc(-c3ccccc3Cl)cc(=O)c2c1
IC50 (HepG2): 61 µM

Nc1ccc(-c2cc(=O)c3cc(CN4CCCCC4)ccc3o2)cc1
IC50 (SMMC-7721): 3.68 µM
IC50 (HepG2): 2.64 µM

Cc1ccc2c(=O)cc(-c3ccc(Cl)cc3)oc2c1
IC50 (HepG2): 6.83 µM

Cc1ccc2c(=O)cc(-c3ccccc3Cl)oc2c1
IC50 (HepG2): 28.3 µM

Cc1ccc2c(=O)cc(-c3ccc(N)cc3)oc2c1
IC50 (HepG2): 40.5 µM

CN1CCN(Cc2ccc3c(=O)cc(-c4ccc([N+](=O)[O-])cc4)oc3c2)CC1
IC50 (SMMC-7721): 10.7 µM

O=c1cc(-c2ccc([N+](=O)[O-])cc2)oc2c(CN3CCNCC3)cc(Cl)cc12
IC50 [1]: 4.84 µM
IC50 (SMMC-7721): 1.1 µM
IC50 (HepG2): 0.243 µM

CN(C)Cc1cc(Cl)cc2c(=O)cc(-c3ccc([N+](=O)[O-])cc3)oc12
IC50 (SMMC-7721): 56.5 µM
IC50 (HepG2): 6.19 µM

O=c1cc(-c2ccc([N+](=O)[O-])cc2)oc2c(Cn3ccnc3)cc(Cl)cc12
IC50 [1]: 2.14 µM
IC50 (SMMC-7721): 1.2 µM
IC50 (HepG2): 2.94 µM

CCN(CC)Cc1cc(Cl)cc2c(=O)cc(-c3ccccc3Cl)oc12
IC50 [1]: 2.06 µM
IC50 (SMMC-7721): 0.81 µM
IC50 (HepG2): 7.94 µM

O=c1cc(-c2ccccc2Cl)oc2c(CN3CCCCC3)cc(Cl)cc12
IC50 (SMMC-7721): 3.4 µM
IC50 (HepG2): 10.7 µM

CN1CCN(Cc2cc(Cl)cc3c(=O)cc(-c4ccccc4Cl)oc23)CC1
IC50 (SMMC-7721): 3.1 µM

O=c1cc(-c2ccccc2Cl)oc2c(CN3CCOCC3)cc(Cl)cc12
IC50 (SMMC-7721): 13.2 µM
IC50 (HepG2): 6.81 µM

O=c1cc(-c2ccccc2Cl)oc2c(CN3CCNCC3)cc(Cl)cc12
IC50 (SMMC-7721): 2.69 µM
IC50 (HepG2): 18.7 µM

CN(C)Cc1cc(Cl)cc2c(=O)cc(-c3ccccc3Cl)oc12
IC50 (SMMC-7721): 1.14 µM
IC50 (HepG2): 1.87 µM

O=c1cc(-c2ccccc2Cl)oc2c(Cn3ccnc3)cc(Cl)cc12
IC50 (SMMC-7721): 1.07 µM
IC50 (HepG2): 3.27 µM

O=c1cc(-c2ccc(Cl)cc2)oc2c(CN3CCOCC3)cc(Cl)cc12
IC50 [1]: 2.17 µM
IC50 (SMMC-7721): 15.3 µM
IC50 (HepG2): 6.33 µM

Cc1ccc2oc(-c3ccccc3Cl)cc(=O)c2c1
IC50 (SMMC-7721): 15.1 µM
IC50 (HepG2): 6.23 µM

CN1CCN(Cc2ccc3oc(-c4ccc([N+](=O)[O-])cc4)cc(=O)c3c2)CC1
IC50 (SMMC-7721): 19 µM

Cc1cc(Cl)cc2c(=O)cc(-c3ccc(N)cc3)oc12
IC50 (HepG2): 11.9 µM

CCN(CC)Cc1cccc2c(=O)cc(-c3ccc([N+](=O)[O-])cc3)oc12
IC50 [1]: 2.21 µM
IC50 (HepG2): 28.8 µM

CN1CCN(Cc2cccc3c(=O)cc(-c4ccc([N+](=O)[O-])cc4)oc23)CC1
IC50 [1]: 8.13 µM
IC50 (SMMC-7721): 1.19 µM
IC50 (HepG2): 2.94 µM

CCN(CC)Cc1cc(Cl)cc2c(=O)cc(-c3ccc([N+](=O)[O-])cc3)oc12
IC50 (SMMC-7721): 2.99 µM
IC50 (HepG2): 1.19 µM

O=c1cc(-c2ccc([N+](=O)[O-])cc2)oc2c(CN3CCCCC3)cc(Cl)cc12
IC50 (SMMC-7721): 1.09 µM
IC50 (HepG2): 8.91 µM

CN1CCN(Cc2cc(Cl)cc3c(=O)cc(-c4ccc([N+](=O)[O-])cc4)oc23)CC1
IC50 [1]: 6.22 µM
IC50 (SMMC-7721): 5.21 µM
IC50 (HepG2): 1.76 µM

O=c1cc(-c2ccc([N+](=O)[O-])cc2)oc2cc(CN3CCNCC3)ccc12
IC50 (SMMC-7721): 2.03 µM
IC50 (HepG2): 4.53 µM

CCN(CC)Cc1ccc2c(=O)cc(-c3ccccc3Cl)oc2c1
IC50 (HepG2): 10.7 µM

O=c1cc(-c2ccccc2Cl)oc2cc(CN3CCCCC3)ccc12
IC50 (HepG2): 3.64 µM
